Assay results taken from patent publication US5066654A, “2-aryl-3-heterocyclicmethyl-3H-imidazo[4,5-b]pyridines as anxiolytics and anticonvulsants” (A. H. Robins Company, Incorporated, priority 1990, dated 1991).
“And” between values parts separate entries of the source, which are not always exact repeats. Equal values may be shown once. Read-outs that look alike come from different tables or passages of the source.

Experiments:
mouse [1] = assay: exploratory light/dark test procedure (anxiolytic activity); assay type: in vivo
Procedure: Anxiolytic activity also was evaluated in vivo in an exploratory […] test procedure [Young et al., Soc. Neurosci. Abs. 14,207 (1988) and Costall et al., Brit. J. Pharmacol. 93,985 (1988)]. Briefly, test compound was administered to a mouse which was placed in a two compartment light-dark activity monitoring box. Control animals typically move to the dark side of the box to avoid the bright light. Animals treated with anxiolytic agents spend more time exploring the lit side of the box than control animals. […]
The following table summarizes the results of representative compounds of this invention in the light/dark exploratory test procedure for anxiolytic activity. Compounds were compared with diazepam as a reference standard at each dose level.

adult female mice [2] = assay: MES, maximal electroshock test (electrically induced seizures); assay type: in vivo; details: Mus musculus; for responders at 100 mg/kg / responders at 31.6 mg/kg: read-out: MES (% protection)
Procedure: (§1) Briefly, test compound was administered to adult female mice, followed by either electrical (60 Hz, 5 msec. pulse width […] intensity for 0.2 seconds) or chemical [Metrazole® (pentylenetetrazol)] challenge. […] Results are expressed either as percent protection at a given dose or as the ED50 for protection.
**MES = Maximal electroshock test; results given as % protection at a
given dose (mg/kg) or ED50 (mg/kg).

benzodiazepine receptor = assay: inhibition of [^3 H]-flunitrazepam binding to the benzodiazepine receptor
Procedure: Anxiolytic activity was evaluated in vitro according to the method of Chiu et al. [Mol. Pharmacol. 21, 57 (1982)] by determining the IC50 for the inhibition of [^3 H]-flunitrazepam binding to the benzodiazepine receptor.
*Inhibition of [^3 Hflunitroazepam binding to the benzodiazepine

adult female mice [3] = assay: SC-MET, subcutaneous Metrazole (pentylenetetrazol) test (chemically induced seizures); assay type: in vivo; details: for ED50: Mus musculus, sc, ED50 for protection
Procedure: as §1
^+ SCMET = subcutaneous Metrazole ® test; results given as %
protection at a given dose (mg/kg) or ED50 (mg/kg).

mouse [4] = assay: loss of righting reflex test procedure (ataxia); assay type: in vivo
Procedure: Compounds with anticonvulsant activity typically cause ataxia, an undesirable side effect, at some dose. Representative compounds of this invention were evaluated in a loss of righting reflex test procedure [A. P. Roszkowski, J. Pharmacol. Exp. Ther. 129, 75-81 (1960)]. Briefly, the compound to be evaluated was administered to a mouse which was then placed upside down in its cage. Failure to right itself within 20 seconds was considered to be loss of the righting reflex. Results are expressed as percent of mice losing righting reflex at a given dose.

[5] = [^3 H]-flunitrazepam, in vitro, read-out: ^3 H-Flu binding IC50

Row | SMILES | responders at 100 mg/kg (adult female mice [2]) [%] | IC50 (benzodiazepine receptor; [5]) [nM] | % Loss of Righting Reflex (mouse [4]; dose 100 mg/kg) [%] | ED50 (adult female mice [3]) [mg/kg] | % of Time in Lit Area, Compound (mouse [1]; dose 3.16 mg/kg) [%] | % of Time in Lit Area, Compound (mouse [1]; dose 10.0 mg/kg) [%] | further results
1 | CN1C(=O)CN=C(c2ccccc2)c2cc(Cl)ccc21 [Diazepam, diazepam, reference compound] | – | – | – | – | – | – | % of Time in Lit Area, Diazepam (mouse [1]; diazepam reference, row of dose 0.01 mg/kg): 27%; % of Time in Lit Area, Diazepam (mouse [1]; diazepam reference, row of dose 0.1 mg/kg): 27%; % of Time in Lit Area, Diazepam (mouse [1]; diazepam reference, row of dose 1.0 mg/kg, 1 mg/kg): 28% and 26%; % of Time in Lit Area, Diazepam (mouse [1]; diazepam reference, row of dose 3.16 mg/kg, 3.16 mg/kg): 26% and 27% and 28%; % of Time in Lit Area, Diazepam (mouse [1]; diazepam reference, row of dose 5.62 mg/kg): 27%; % of Time in Lit Area, Diazepam (mouse [1]; diazepam reference, row of dose 10.0 mg/kg, 10 mg/kg): 26% and 28%; sedation, Diazepam (mouse [1]; diazepam reference, row of dose 17.8 mg/kg): sedation; % of Time in Lit Area, Diazepam (mouse [1]; diazepam reference, row of dose 31.6 mg/kg, 31.6 mg/kg): 28% and 26%; % of Time in Lit Area, Diazepam (additional result) (mouse [1]; dose of 10 mg/kg, additional result in footnote): 28%
2 | Clc1ccc(-c2nc3cccnc3n2Cc2ccccn2)cc1 [Example 1, 2-(4-Chlorophenyl)-3-(2-pyridinylmethyl)-3H-imidazo[4,5-b]pyridine] | 0 | 7000 | 0 | – | – | – | SC-MET (% protection) (adult female mice [3]; dose 100 mg/kg): 37.5%
3 | Cc1ccc(-c2nc3cccnc3n2Cc2ccccn2)cc1 [Example 2, 2-(4-Methylphenyl)-3-(2-pyridinylmethyl)-3H-imidazo[4,5-b]pyridine] | 25 | 3100 | 0 | 48.7 | – | – | –
4 | Clc1ccc(-c2nc3ccc(Cl)nc3n2Cc2ccccn2)cc1 [Example 3, 5-Chloro-2-(4-chlorophenyl)-3-(2-pyridinylmethyl)-3H-imidazo[4,5-b]pyridine] | 0 | 3300 | 0 | – | – | – | SC-MET (% protection) (adult female mice [3]; dose 100 mg/kg): 62.5%
5 | Cc1ccc(-c2nc3ccc(Cl)nc3n2Cc2ccccn2)cc1 [Example 4, 5-Chloro-2-(4-methylphenyl)-3-(2-pyridinylmethyl)-3H-imidazo[4,5-b]pyridine] | – | 1600 | 0 | 38.8 | – | – | –
6 | Cc1ccc(-c2nc3ccc(Cl)nc3n2Cc2ncc[nH]2)cc1 [Example 5, 5-Chloro-3-(1H-imidazol-2-ylmethyl)-2-(4-methylphenyl)-3H-imidazo[4,5-b]pyridine] | 0 | 300 | 0 | 6.92 | – | – | –
7 | Cc1ccc(-c2nc3ccc(C)nc3n2Cc2ccccn2)cc1 [Example 6, 5-Methyl-2-(4-methylphenyl)-3-(2-pyridinylmethyl)-3H-imidazo[4,5-b]pyridine] | 12.5 | 3900 | 0 | 38.1 | 36 | 38 | –
8 | Cc1ccc2nc(-c3ccc(Cl)cc3)n(Cc3ccccn3)c2n1 [Example 7, 2-(4-Chlorophenyl)-5-methyl-3-(2-pyridinylmethyl)-3H-imidazo[4,5-b]pyridine] | – | 7300 | 62.5 | 29.4 | – | – | ED50 (adult female mice [2]; ED50 for protection): 76 mg/kg
9 | Clc1ccc(-c2nc3cccnc3n2Cc2ncc[nH]2)cc1 [Example 8, 2-(4-Chlorophenyl)-3-(1H-imidazol-2-ylmethyl)-3H-imidazo[4,5-b]pyridine] | – | 410 | – | – | – | – | responders at 31.6 mg/kg (adult female mice [2]): 0%; SC-MET (% protection) (adult female mice [3]; dose 31.6 mg/kg): 0%; % Loss of Righting Reflex (mouse [4]; dose 31.6 mg/kg): 0%
10 | Cc1ccc(-c2nc3cccnc3n2Cc2ncc[nH]2)cc1 [Example 9, 3-(1H-Imidazol-2-ylmethyl)-2-(4-methylphenyl)-3H-imidazo[4,5-b]pyridine] | – | 140 | – | 15.4 | – | – | responders at 31.6 mg/kg (adult female mice [2]): 0%
11 | Clc1ccc(-c2nc3ccc(Cl)nc3n2Cc2ncc[nH]2)cc1 [Example 10, 5-Chloro-2-(4-chlorophenyl)-3-(1H-imidazol-2-ylmethyl)-3H-imidazo[4,5-b]pyridine] | – | 130 | 0 | 8.6 | 49 | 40 | IC50 (benzodiazepine receptor; obtained on reevaluation, read-out: ^3 H-Flu binding IC50 (reevaluation)): 160 nM; % of Time in Lit Area, Compound (mouse [1]; dose 0.01 mg/kg): 35%; % of Time in Lit Area, Compound (mouse [1]; dose 0.1 mg/kg): 37%; % of Time in Lit Area, Compound (mouse [1]; dose 5.62 mg/kg): 49%; % of Time in Lit Area, Compound (additional result) (mouse [1]; dose 10 mg/kg, additional result in footnote): 38%; sedation, Compound (mouse [1]; mouse, in vivo, 17.8 mg/kg): sedation
12 | Cc1c[nH]c(Cn2c(-c3ccc(Cl)cc3)nc3cccnc32)n1 [Example 11, 2-(4-Chlorophenyl)-3-(4-methyl-1H-imidazol-2-ylmethyl)-3H-imidazo[4,5-b]pyridine] | 0 | 390 | 0 | 16.8 | 40 | 40 | % of Time in Lit Area, Compound (mouse [1]; dose 1.0 mg/kg): 38%; % of Time in Lit Area, Compound (mouse [1]; dose 31.6 mg/kg): 53%
13 | Cc1ccc(-c2nc3cccnc3n2Cc2nc(C)c[nH]2)cc1 [Example 12] | 0 | 220 | 0 | 14.8 | 40 | 51 | % of Time in Lit Area, Compound (mouse [1]; dose 1.0 mg/kg): 38%; % of Time in Lit Area, Compound (mouse [1]; dose 31.6 mg/kg): 48%
